Measured values: EP0565897B1, “Argatroban preparations for ophthalmic use” (priority 1992, dated 1993)

Assays:
[1] = tested on: fibrin formation in the anterior chamber; assay: Fibrin formation by administering self-plasma to the anterior chamber; type: in vivo, white rabbits; details: 150 microliter plasma and 50 microliter argatroban solution (10 mg/ml) injected to the anterior chamber; 24 hours after the administration
Description: Blood of matured white rabbits (2 kg in body weight) were taken and separated to give plasma. Two hundreds microliter of anterior chamber liquid was taken by conducting centesis into anterior chamber of the same rabbit. Then, 150 microliter of the plasma obained and 50 microliter of argatroban solution (10 mg/ml), 200 microliter in total, were injected to the anterior chamber from the same centesis portion. The control received 150 microliter of plasma and 50 microliter of physiological saline in the same manner at the anterior chamber. The fibrin formation in the anterior chamber 24 hours after the administration was observed and recorded.

[2] = tested on: fibrin formation in the rabbit anterior chamber; assay: Fibrin formation in the anterior chamber caused by laser irradiation (slit lamp microscope); type: in vivo, pigmented rabbits; details: 0.1 mg/kg/minute intravenously, 30 minutes after the irradiation
Description: In this example, a model of fibrin formation in the rabbit anterior chamber caused by laser irradiation was used as a measure for testing the action of argatroban. In this model, the seriousness of inflammation and amount of fibrin are determined proportional to the total energy of the laser irradiation. The amount of fibrin can be controled to the desired value by altering total energy of laser irradiation.
(§1) Matured pigmented rabbits (Dutch rabbits of 2 kg body weight) were irradiated with laser at the iris using an argon laser equipment (product of NIDEK). In one group of the rabbits on the eyes, 8 irradiation points at the same interval on a circle line were made under the conditions of coagulation size of 50 micrometer, output of 1.0 Watt and irradiation time of 0.1 second (condition A). In other group of the rabbits, 8 irradiation points similar to those on the eyes were made under the conditions of coagulation size of 200 micrometer, output of 1.0 Watt and irradiation time of 0.2 second (condition B).
From 30 minutes prior to and until 30 minutes after irradiations, 0.1 mg/kg/minute of argatroban was administered intravenously from ear vein. Control group received only laser irradiation. Positive control group received 1000 U/kg of heparin intravenously 30 minutes prior to laser irradiation. […]
The fibrin formation was recorded photographically using a slit lamp microscope.

[3] = LD50 (acute toxicity), rat; details: in vivo
Description: (§2) In the following Table 2, the toxicological data of argatroban is shown.

[4] = tested on: flare increase in the anterior chamber; assay: Anterior chamber flare after argon laser irradiation (flare cell meter); type: in vivo, pigmented rabbits; details: condition B
Description: as §1
From 30 minutes prior to and until 30 minutes after irradiations, 0.1 mg/kg/minute of argatroban was administered intravenously from ear vein. Control group received only laser irradiation. Positive control group received 1000 U/kg of heparin intravenously 30 minutes prior to laser irradiation.
For argatroban eye drop, right eyes of the rabbits received 5 mg/ml solution of argatroban, while left eyes were used as a control without application of argatroban.
Further, the laser irradiation of condition B was effected and then the anterior chamber flare values were estimated using the flare cell meter at 30 minutes and 60 minutes after the irradiation.
The flare cell meter measures turbidity in the anterior chamber as the photon count. […]

[5] = LD50 (acute toxicity), dog; type: in vivo; details: in vivo, iv, Male, i. v.
Description: as §2

[6] = tested on: dog; assay: LD50 (acute toxicity), dog; type: in vivo; details: Female, i. v.
Description: as §2

[7] = LD50 (acute toxicity), mouse; details: in vivo
Description: as §2

CC1CNc2c(cccc2S(=O)(=O)N[C@@H](CCCNC(=N)N)C(=O)N2CC[C@@H](C)C[C@@H]2C(=O)O)C1.O (mixture of isomers) [argatroban, (2R,4R)-4-methyl-1-[N^2-((RS)-3-methyl-1,2,3,4-tetrahydro-8-quinolinesulfonyl)-L-arginyl]-2-piperidinecarboxylic acid hydrate]
fibrin formation [1]: No fibrin formation was observed | fibrin formation ([2]; condition A): no fibrin formation was also observed | fibrin formation ([2]; condition B): no fibrin formation was also observed | LD50 ([3]; ip, Female, i. p.): 409 mg/kg | LD50 ([3]; ip, Male, i. p.): 320 mg/kg | LD50 ([3]; iv, Female, i. v.): > 81 mg/kg | LD50 ([3]; iv, Male, i. v.): > 81 mg/kg | LD50 ([3]; po, Female, p. o.): > 15000 mg/kg | LD50 ([3]; po, Male, p. o.): > 15000 mg/kg | LD50 ([3]; sc, Female, subc.): 620 mg/kg | LD50 ([3]; sc, Male, subc.): 700 mg/kg | photon count (/msec) ([4]; eye drop, solution of 5 mg/ml, 30 minutes after laser irradiation): 287.7 ± 99.2 (n=4) /msec | photon count (/msec) ([4]; eye drop, solution of 5 mg/ml, 60 minutes after laser irradiation): 341.2 ± 86.5 (n=4) /msec | photon count (/msec) ([4]; intravenous injection at 0.1 mg/kg/min, 30 minutes after laser irradiation): 417.7 ± 159.3 (n=4) /msec | photon count (/msec) ([4]; intravenous injection at 0.1 mg/kg/min, 60 minutes after laser irradiation): 356.9 ± 168.3 (n=4) /msec | LD50 [5]: > 200 mg/kg | LD50 [6]: > 200 mg/kg | LD50 ([7]; ip, Female, i. p.): 640 mg/kg | LD50 ([7]; ip, Male, i. p.): 475 mg/kg | LD50 ([7]; iv, Female, i. v.): > 81 mg/kg | LD50 ([7]; iv, Male, i. v.): > 81 mg/kg | LD50 ([7]; po, Female, p. o.): > 15000 mg/kg | LD50 ([7]; po, Male, p. o.): > 15000 mg/kg | LD50 ([7]; sc, Female, subc.): 3900 mg/kg | LD50 ([7]; sc, Male, subc.): 3750 mg/kg
